# Data taken from patent US7384933B2, “Derivatives of 2-hydroxytetrahydrofuran and their use as medicaments” (priority 2003, dated 2008).
smiles,measurement,value
"NC(=O)[C@H](Cc1ccccc1)N(C(=O)CNC(=O)COc1ccc2c(c1)Nc1ccccc1S2)[C@H]1CCOC1O (stereo partly drawn) [Example 57, N-[(10H-phenothiazin-2-yloxy)acetyl]glycyl-N^1-[(3S)-2-hydroxytetrahydrofuran-3-yl]-L-phenylalaninamide]",melting point,207 to 208 °C
